Source: PubChem BioAssay (NCI)
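A five-concentration, 48-hour dose response in 96-well plates underlies each endpoint, interpolated linearly between surrounding concentrations. Here, GI50 denotes the concentration required for 50% inhibition of growth. TGI denotes the concentration required for complete inhibition of growth.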

Legend:
Experiment in all cases: NCI anticancer screen, dose series, 48 h
OVCAR-5 ovarian = tested on: OVCAR-5 ovarian
MOLT-4 leukemia = tested on: MOLT-4 leukemia
HS 578T breast = tested on: HS 578T breast
TK-10 renal = tested on: TK-10 renal
NCI-H522 lung = tested on: NCI-H522 lung
MDA-MB-435 = tested on: MDA-MB-435
RXF 393 renal = tested on: RXF 393 renal
NCI-H23 lung = tested on: NCI-H23 lung
HOP-62 NSCLC = tested on: HOP-62 NSCLC
KM12 colon = tested on: KM12 colon
HCT-15 colon = tested on: HCT-15 colon
MCF7 breast = tested on: MCF7 breast
OVCAR-4 ovarian = tested on: OVCAR-4 ovarian
SK-MEL-28 melanoma = tested on: SK-MEL-28 melanoma
EKVX NSCLC = tested on: EKVX NSCLC
BT-549 breast = tested on: BT-549 breast
OVCAR-8 ovarian = tested on: OVCAR-8 ovarian
NCI-H226 lung = tested on: NCI-H226 lung
RPMI-8226 leukemia = tested on: RPMI-8226 leukemia
IGROV1 ovarian = tested on: IGROV1 ovarian
UACC-257 melanoma = tested on: UACC-257 melanoma
SW-620 colon = tested on: SW-620 colon
M14 melanoma = tested on: M14 melanoma
ACHN renal = tested on: ACHN renal
MALME-3M melanoma = tested on: MALME-3M melanoma
UACC-62 melanoma = tested on: UACC-62 melanoma
HCC-2998 colon = tested on: HCC-2998 colon
NCI-H460 lung = tested on: NCI-H460 lung
SR leukemia = tested on: SR leukemia
MDA-MB-231 breast = tested on: MDA-MB-231 breast
SNB-19 CNS = tested on: SNB-19 CNS
T-47D breast = tested on: T-47D breast
SK-OV-3 ovarian = tested on: SK-OV-3 ovarian
HT29 colon = tested on: HT29 colon
CCRF-CEM leukemia = tested on: CCRF-CEM leukemia
DU-145 prostate = tested on: DU-145 prostate
SF-539 CNS = tested on: SF-539 CNS
SN12C renal = tested on: SN12C renal
SNB-75 CNS = tested on: SNB-75 CNS
SK-MEL-5 melanoma = tested on: SK-MEL-5 melanoma
UO-31 renal = tested on: UO-31 renal
HL-60(TB) leukemia = tested on: HL-60(TB) leukemia
A549 NSCLC = tested on: A549 NSCLC
LOX IMVI melanoma = tested on: LOX IMVI melanoma
PC-3 prostate = tested on: PC-3 prostate
A498 renal = tested on: A498 renal
HCT-116 colon = tested on: HCT-116 colon
NCI/ADR-RES ovarian = tested on: NCI/ADR-RES ovarian
U251 CNS = tested on: U251 CNS
K-562 leukemia = tested on: K-562 leukemia
HOP-92 NSCLC = tested on: HOP-92 NSCLC
OVCAR-3 ovarian = tested on: OVCAR-3 ovarian
CAKI-1 renal = tested on: CAKI-1 renal
COLO 205 colon = tested on: COLO 205 colon
SF-295 CNS = tested on: SF-295 CNS
SF-268 CNS = tested on: SF-268 CNS
SK-MEL-2 melanoma = tested on: SK-MEL-2 melanoma
786-0 renal = tested on: 786-0 renal

CC1(C)CC[C@]2(C(=O)O)CC[C@]3(C)C(=CC[C@@H]4[C@@]5(C)C/C(=C/c6ccco6)C(=O)C(C)(C)[C@@H]5CC[C@]43C)[C@@H]2C1
GI50 (OVCAR-5 ovarian): 6.15 µM | TGI (OVCAR-5 ovarian): 32.5 µM | GI50 (MOLT-4 leukemia): 1040 nM | TGI (MOLT-4 leukemia): > 100 µM | GI50 (HS 578T breast): 5.19 µM | TGI (HS 578T breast): 54.1 µM | GI50 (TK-10 renal): 6.11 µM | TGI (TK-10 renal): 89.8 µM | GI50 (NCI-H522 lung): 3.22 µM | TGI (NCI-H522 lung): 24.3 µM | GI50 (MDA-MB-435): 3.63 µM | TGI (MDA-MB-435): 14.1 µM | GI50 (RXF 393 renal): 3.3 µM | TGI (RXF 393 renal): 13.6 µM | GI50 (NCI-H23 lung): 3.13 µM | TGI (NCI-H23 lung): 17.6 µM | GI50 (HOP-62 NSCLC): 3.75 µM | TGI (HOP-62 NSCLC): 14.9 µM | GI50 (KM12 colon): 2770 nM | TGI (KM12 colon): 11.6 µM | GI50 (HCT-15 colon): 2500 nM | TGI (HCT-15 colon): 13.4 µM | GI50 (MCF7 breast): 3.18 µM | TGI (MCF7 breast): 23.5 µM | GI50 (OVCAR-4 ovarian): 3.76 µM | TGI (OVCAR-4 ovarian): 41.1 µM | GI50 (SK-MEL-28 melanoma): 4.35 µM | TGI (SK-MEL-28 melanoma): 17.4 µM | GI50 (EKVX NSCLC): 3.62 µM | TGI (EKVX NSCLC): 31.1 µM | GI50 (BT-549 breast): 4.01 µM | TGI (BT-549 breast): 23.4 µM | GI50 (OVCAR-8 ovarian): 4.29 µM | TGI (OVCAR-8 ovarian): > 100 µM | GI50 (NCI-H226 lung): 3.42 µM | TGI (NCI-H226 lung): 19.5 µM | GI50 (RPMI-8226 leukemia): 2220 nM | TGI (RPMI-8226 leukemia): 10.7 µM | GI50 (IGROV1 ovarian): 4.48 µM | TGI (IGROV1 ovarian): 22.2 µM | GI50 (UACC-257 melanoma): 6.24 µM | TGI (UACC-257 melanoma): 35.6 µM | GI50 (SW-620 colon): 3.82 µM | TGI (SW-620 colon): 18.2 µM | GI50 (M14 melanoma): 4.51 µM | TGI (M14 melanoma): 21.6 µM | GI50 (ACHN renal): 2890 nM | TGI (ACHN renal): 11.1 µM | GI50 (MALME-3M melanoma): 3.99 µM | TGI (MALME-3M melanoma): 16.6 µM | GI50 (UACC-62 melanoma): 3.06 µM | TGI (UACC-62 melanoma): 12.8 µM | GI50 (HCC-2998 colon): 3.15 µM | TGI (HCC-2998 colon): 12.2 µM | GI50 (NCI-H460 lung): 3.38 µM | TGI (NCI-H460 lung): 12.2 µM | GI50 (SR leukemia): 4.04 µM | TGI (SR leukemia): 52.4 µM | GI50 (MDA-MB-231 breast): 3.49 µM | TGI (MDA-MB-231 breast): 19.5 µM | GI50 (SNB-19 CNS): 4.02 µM | TGI (SNB-19 CNS): > 100 µM | GI50 (T-47D breast): 3.23 µM | TGI (T-47D breast): 48.4 µM | GI50 (SK-OV-3 ovarian): 4.22 µM | TGI (SK-OV-3 ovarian): 79.4 µM | GI50 (HT29 colon): 3.14 µM | TGI (HT29 colon): 14.1 µM | GI50 (CCRF-CEM leukemia): 3.16 µM | TGI (CCRF-CEM leukemia): 31.6 µM | GI50 (DU-145 prostate): 4.02 µM | TGI (DU-145 prostate): 15.1 µM | GI50 (SF-539 CNS): 3.34 µM | TGI (SF-539 CNS): 11.6 µM | GI50 (SN12C renal): 3.37 µM | TGI (SN12C renal): 19.2 µM | GI50 (SNB-75 CNS): 3.04 µM | TGI (SNB-75 CNS): 54.6 µM | GI50 (SK-MEL-5 melanoma): 2510 nM | TGI (SK-MEL-5 melanoma): 8.74 µM | GI50 (UO-31 renal): 2390 nM | TGI (UO-31 renal): 11.6 µM | GI50 (HL-60(TB) leukemia): 2550 nM | TGI (HL-60(TB) leukemia): 6.84 µM | GI50 (A549 NSCLC): 2600 nM | TGI (A549 NSCLC): 23.5 µM | GI50 (LOX IMVI melanoma): 2460 nM | TGI (LOX IMVI melanoma): 6.77 µM | GI50 (PC-3 prostate): 2620 nM | TGI (PC-3 prostate): 14.9 µM | GI50 (A498 renal): 6.14 µM | TGI (A498 renal): 45.6 µM | GI50 (HCT-116 colon): 2900 nM | TGI (HCT-116 colon): 12 µM | GI50 (NCI/ADR-RES ovarian): 3.64 µM | TGI (NCI/ADR-RES ovarian): 44.5 µM | GI50 (U251 CNS): 3.45 µM | TGI (U251 CNS): 15 µM | GI50 (K-562 leukemia): 3.37 µM | TGI (K-562 leukemia): > 100 µM | GI50 (HOP-92 NSCLC): 2690 nM | TGI (HOP-92 NSCLC): 12.2 µM | GI50 (OVCAR-3 ovarian): 2900 nM | TGI (OVCAR-3 ovarian): 9.61 µM | GI50 (CAKI-1 renal): 2720 nM | TGI (CAKI-1 renal): 15.7 µM | GI50 (COLO 205 colon): 2020 nM | TGI (COLO 205 colon): 3.89 µM | GI50 (SF-295 CNS): 3.22 µM | TGI (SF-295 CNS): 18.1 µM | GI50 (SF-268 CNS): 4.03 µM | TGI (SF-268 CNS): 23 µM | GI50 (SK-MEL-2 melanoma): 2990 nM | TGI (SK-MEL-2 melanoma): 11.4 µM | GI50 (786-0 renal): 4.12 µM | TGI (786-0 renal): 26.5 µM
